Measured values taken from ChEMBL document CHEMBL1201862, “PubChem BioAssay data set” (2004).
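Briefly, cells in 96-well plates were exposed to five compound concentrations for 48 h, and endpoints were estimated by linear interpolation. GI50 is the concentration that inhibits growth by half.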 Activity calls are given as the source filed them. Rule as the data show it: active = GI50 up to about 1.1 µM and inactive = higher.

Key:
Assay in all cases: NCI anticancer screen, dose series, 48 h
[1] = tested on: OVCAR-5
[2] = tested on: SW-620
[3] = tested on: KM12
[4] = tested on: DMS-273
[5] = tested on: UACC-257
[6] = tested on: EKVX
[7] = tested on: K562
[8] = tested on: NCI-H23
[9] = tested on: LOX IMVI
[10] = tested on: KM-20L2
[11] = tested on: DLD-1
[12] = tested on: RXF 631
[13] = tested on: HCT-116
[14] = tested on: CCRF-CEM
[15] = tested on: HOP-92
[16] = tested on: IGROV-1
[17] = tested on: COLO 205
[18] = tested on: LXFL 529
[19] = tested on: TK-10
[20] = tested on: NCI-H460
[21] = tested on: UO-31
[22] = tested on: DMS-114
[23] = tested on: SK-MEL-28
[24] = tested on: RXF 393
[25] = tested on: HCC 2998
[26] = tested on: OVCAR-8
[27] = tested on: NCI-H226
[28] = tested on: HOP-62
[29] = tested on: Malme-3M
[30] = tested on: OVCAR-3
[31] = tested on: M19-MEL
[32] = tested on: HT-29
[33] = tested on: SK-MEL-2
[34] = tested on: U-251
[35] = tested on: UACC-62
[36] = tested on: SNB-78
[37] = tested on: ACHN
[38] = tested on: M14
[39] = tested on: SK-MEL-5
[40] = tested on: RPMI-8226
[41] = tested on: SNB-75
[42] = tested on: 786-0
[43] = tested on: SF-268
[44] = tested on: HL-60
[45] = tested on: A498
[46] = tested on: A549
[47] = tested on: NCI-H522
[48] = tested on: SK-OV-3
[49] = tested on: SF-539
[50] = tested on: SF-295
[51] = tested on: MOLT-4
[52] = tested on: CAKI-1
[53] = tested on: SN12C
[54] = tested on: OVCAR-4
[55] = tested on: SNB-19
[56] = tested on: SR
[57] = tested on: HCT-15

Measured: GI50

O=[N+]([O-])c1cccc(-c2oc(/C=N/c3ccccc3)c([N+](=O)[O-])c2-c2cccc([N+](=O)[O-])c2)c1
inactive: [1] > 100 µM | [2] > 100 µM | [3] > 100 µM | [4] > 100 µM | [5] > 100 µM | [6] > 100 µM | [7] > 100 µM | [8] > 100 µM | [9] > 100 µM | [10] > 100 µM | [11] > 100 µM | [12] > 100 µM | [13] > 100 µM | [14] > 100 µM | [15] > 100 µM | [16] > 100 µM | [17] > 100 µM | [18] > 100 µM | [19] > 100 µM | [20] > 100 µM | [21] > 100 µM | [22] > 100 µM | [23] > 100 µM | [24] > 100 µM | [25] > 100 µM | [26] > 100 µM | [27] > 100 µM | [28] > 100 µM | [29] > 100 µM | [30] > 100 µM | [31] > 100 µM | [32] > 100 µM | [33] > 100 µM | [34] > 100 µM | [35] > 100 µM | [36] > 100 µM | [37] > 100 µM | [38] > 100 µM | [39] > 100 µM | [40] > 100 µM | [41] > 100 µM | [42] > 100 µM | [43] > 100 µM | [44] > 100 µM | [45] > 100 µM | [46] > 100 µM | [47] > 100 µM | [48] > 100 µM | [49] > 100 µM | [50] > 100 µM | [51] > 100 µM

CN1C(c2ccccc2)CC(C)(O)CC1c1ccccc1 (stereo not drawn)
inactive: [52] > 100 µM | [1] > 100 µM | [2] > 100 µM | [3] > 100 µM | [4] > 100 µM | [5] > 100 µM | [6] > 100 µM | [7] > 100 µM | [8] > 100 µM | [9] > 100 µM | [10] > 100 µM | [11] > 100 µM | [12] > 100 µM | [53] > 100 µM | [13] > 100 µM | [14] > 100 µM | [15] > 100 µM | [54] > 100 µM | [16] > 100 µM | [17] > 100 µM | [18] > 100 µM | [19] > 100 µM | [20] > 100 µM | [21] > 100 µM | [22] > 100 µM | [55] > 100 µM | [23] > 100 µM | [24] > 100 µM | [25] > 100 µM | [26] > 100 µM | [27] > 100 µM | [28] > 100 µM | [29] > 100 µM | [30] > 100 µM | [31] > 100 µM | [32] > 100 µM | [33] > 100 µM | [34] > 100 µM | [35] > 100 µM | [36] > 100 µM | [37] > 100 µM | [38] > 100 µM | [39] > 100 µM | [40] > 100 µM | [41] > 100 µM | [42] > 100 µM | [56] > 100 µM | [43] > 100 µM | [44] 99.5 µM | [45] > 100 µM | [46] > 100 µM | [47] > 100 µM | [48] > 100 µM | [49] > 100 µM | [50] > 100 µM | [51] > 100 µM
> 100 µM: [57]
